Experimental data as given in patent US5324502A, “Radiopharmaceuticals for imaging the heart” (priority 1992, dated 1994).
Where two headings read alike, the source gives them in different places.

Experiments:
[1] = Octanol/water partition coefficient of radiolabeled gallium complexes; type: physicochemical
Protocol: Octanol/water partition coefficients were measured by vortex mixing 1 mL of 1-octanol and 1 mL of isotonic Tris buffer (pH 7.0) with a 1-5 μL sample of the radiolabeled gallium complex. Following centrifugation at >1200 g for 5 minutes, the octanol and aqueous phases were sampled and counted in an automatic well counter.

[2] = rat
Protocol: The gallium-67 complexes are prepared by ligand exchange from gallium-67 chloride, employing the tris(acetylacetonato)gallium(III) complex as an intermediate. The Ga-67 acetylacetonate in ethanol is reacted with the chelating ligand or ligand precursor at elevated temperature to form rapidly the desired gallium radiopharmaceutical. […] The biodistribution of several radiopharmaceuticals was determined in rats following intravenous injection using techniques previously described (M. A. Green, Nuclear Medicine and Biology 14:59-61, 1987; E. John and M. A. Green, J. Medicinal Chemistry, 33:1764-1770, 1990).
Under ether anesthesia, 1 to 3 μCi (0.1-0.2 mL) of no-carrier-added Ga-67 compound was administered by bolus injection into the femoral vein of male Sprague-Dawley rats. The ether anesthetized rats were sacrificed by decapitation at given time intervals post-injection, organs of interest were removed, weighed, and the gallium-67 activity counted. The biodistribution was calculated as a percentage of the injected dose per gram of tissue and percentage of injected dose per organ for each sample.

Structure (SMILES): COc1cc([O-])c(C=NCCNCCNCCN=Cc2c([O-])cc(OC)cc2OC)c(OC)c1.[67Ga+3] [(4,6-MeO2 Sal)2 TETA, ^67 GaL^+ L = [bis(4,6-dimethoxysalicylaldimino)-N,N'-triethylene-tetraamine]]
- log P ([1]; 1-octanol / isotonic Tris buffer pH 7.0): 0.24
- % Injected Dose per Gram Tissue, Blood ([2]; i.v., 1 min): 1.90 ± 0.56 % Injected Dose per Gram Tissu
- % Injected Dose per Gram Tissue, Brain ([2]; i.v., 1 min): 0.05 ± 0.01 % Injected Dose per Gram Tissu
- % Injected Dose per Gram Tissue, Heart ([2]; i.v., 1 min): 0.76 ± 0.04 % Injected Dose per Gram Tissu
- % Injected Dose per Gram Tissue, Kidney (one) ([2]; i.v., 1 min): 4.36 ± 0.27 % Injected Dose per Gram Tissu
- % Injected Dose per Gram Tissue, Liver ([2]; i.v., 1 min): 1.88 ± 0.15 % Injected Dose per Gram Tissu
- % Injected Dose per Gram Tissue, Lungs ([2]; i.v., 1 min): 0.97 ± 0.03 % Injected Dose per Gram Tissu
- % Injected Dose per Gram Tissue, Spleen ([2]; i.v., 1 min): 0.35 ± 0.02 % Injected Dose per Gram Tissu
- % Injected Dose per Organ, Blood ([2]; i.v., 1 min): 19.26 ± 2.97 % Injected Dose per Organ
- % Injected Dose per Organ, Brain ([2]; i.v., 1 min): 0.07 ± 0.01 % Injected Dose per Organ
- % Injected Dose per Organ, Heart ([2]; i.v., 1 min): 0.55 ± 0.04 % Injected Dose per Organ
- % Injected Dose per Organ, Kidney (one) ([2]; i.v., 1 min): 3.83 ± 0.31 % Injected Dose per Organ
- % Injected Dose per Organ, Liver ([2]; i.v., 1 min): 16.90 ± 1.70 % Injected Dose per Organ
- % Injected Dose per Organ, Lungs ([2]; i.v., 1 min): 1.17 ± 0.23 % Injected Dose per Organ
- % Injected Dose per Organ, Spleen ([2]; i.v., 1 min): 0.22 ± 0.01 % Injected Dose per Organ
- % injected dose in heart, 1 min ([2]; i.v., 1 min, preliminary studies): 0.55 ± 0.04 % injected dose
- % Injected Dose per Gram Tissue, Blood ([2]; i.v., 15 min): 0.71 ± 0.08 % Injected Dose per Gram Tissu
- % Injected Dose per Gram Tissue, Brain ([2]; i.v., 15 min): 0.03 ± 0.01 % Injected Dose per Gram Tissu
- % Injected Dose per Gram Tissue, Heart ([2]; i.v., 15 min): 0.53 ± 0.06 % Injected Dose per Gram Tissu
- % Injected Dose per Gram Tissue, Kidney (one) ([2]; i.v., 15 min): 2.35 ± 0.41 % Injected Dose per Gram Tissu
- % Injected Dose per Gram Tissue, Liver ([2]; i.v., 15 min): 2.42 ± 0.25 % Injected Dose per Gram Tissu
- % Injected Dose per Gram Tissue, Lungs ([2]; i.v., 15 min): 0.51 ± 0.05 % Injected Dose per Gram Tissu
- % Injected Dose per Gram Tissue, Spleen ([2]; i.v., 15 min): 0.18 ± 0.02 % Injected Dose per Gram Tissu
- % Injected Dose per Organ, Blood ([2]; i.v., 15 min): 9.32 ± 1.38 % Injected Dose per Organ
- % Injected Dose per Organ, Brain ([2]; i.v., 15 min): 0.04 ± 0.01 % Injected Dose per Organ
- % Injected Dose per Organ, Heart ([2]; i.v., 15 min): 0.36 ± 0.03 % Injected Dose per Organ
- % Injected Dose per Organ, Kidney (one) ([2]; i.v., 15 min): 1.89 ± 0.40 % Injected Dose per Organ
- % Injected Dose per Organ, Liver ([2]; i.v., 15 min): 20.33 ± 1.11 % Injected Dose per Organ
- % Injected Dose per Organ, Lungs ([2]; i.v., 15 min): 0.50 ± 0.05 % Injected Dose per Organ
- % Injected Dose per Organ, Spleen ([2]; i.v., 15 min): 0.11 ± 0.02 % Injected Dose per Organ
- % Injected Dose per Gram Tissue, Blood ([2]; i.v., 120 min): 0.03 ± 0.01 % Injected Dose per Gram Tissu
- % Injected Dose per Gram Tissue, Brain ([2]; i.v., 120 min): 0.01 ± 0.01 % Injected Dose per Gram Tissu
- % Injected Dose per Gram Tissue, Heart ([2]; i.v., 120 min): 0.28 ± 0.05 % Injected Dose per Gram Tissu
- % Injected Dose per Gram Tissue, Kidney (one) ([2]; i.v., 120 min): 0.51 ± 0.10 % Injected Dose per Gram Tissu
- % Injected Dose per Gram Tissue, Liver ([2]; i.v., 120 min): 0.83 ± 0.15 % Injected Dose per Gram Tissu
- % Injected Dose per Gram Tissue, Lungs ([2]; i.v., 120 min): 0.08 ± 0.02 % Injected Dose per Gram Tissu
- % Injected Dose per Gram Tissue, Spleen ([2]; i.v., 120 min): 0.06 ± 0.01 % Injected Dose per Gram Tissu
- % Injected Dose per Organ, Blood ([2]; i.v., 120 min): 0.34 ± 0.02 % Injected Dose per Organ
- % Injected Dose per Organ, Brain ([2]; i.v., 120 min): 0.01 ± 0.01 % Injected Dose per Organ
- % Injected Dose per Organ, Heart ([2]; i.v., 120 min): 0.19 ± 0.03 % Injected Dose per Organ
- % Injected Dose per Organ, Kidney (one) ([2]; i.v., 120 min): 0.42 ± 0.04 % Injected Dose per Organ
- % Injected Dose per Organ, Liver ([2]; i.v., 120 min): 6.90 ± 1.07 % Injected Dose per Organ
- % Injected Dose per Organ, Lungs ([2]; i.v., 120 min): 0.10 ± 0.01 % Injected Dose per Organ
- % Injected Dose per Organ, Spleen ([2]; i.v., 120 min): 0.04 ± 0.01 % Injected Dose per Organ
- % injected dose in heart, 2 h ([2]; i.v., 2 h, preliminary studies): 0.19 ± 0.03 % injected dose
- Heart/Blood ([2]; ratio, i.v., 1 min): 0.53 ± 0.04
- Heart/Liver ([2]; ratio, i.v., 1 min): 0.41 ± 0.04
- Heart/Lungs ([2]; ratio, i.v., 1 min): 0.79 ± 0.05
- Heart/Blood ([2]; ratio, i.v., 15 min): 0.74 ± 0.03
- Heart/Liver ([2]; ratio, i.v., 15 min): 0.22 ± 0.01
- Heart/Lungs ([2]; ratio, i.v., 15 min): 1.03 ± 0.20
- Heart/Blood ([2]; ratio, i.v., 120 min): 10.29 ± 2.64
- Heart/Liver ([2]; ratio, i.v., 120 min): 0.34 ± 0.05
- Heart/Lungs ([2]; ratio, i.v., 120 min): 3.49 ± 0.37

Structure (SMILES): COc1ccc(C=NCCCNCCNCCCN=Cc2ccc(OC)cc2[O-])c([O-])c1.[67Ga+3] [(4-MeOSal)2 BAPEN, ^67 GaL^+ L = [bis(4-methoxysalicylaldimino)-N,N'-bis(3-aminopropyl)-ethylenediamine]]
- log P ([1]; octanol/tris buffer, pH 7): 0.80
- % injected dose in heart, 1 min ([2]; in vivo, iv): 0.67 ± 0.08 % injected dose
- % injected dose in heart, 2 h ([2]; in vivo, iv): 0.65 ± 0.05 % injected dose
- % Injected Dose per Gram Tissue, Blood ([2]; in vivo, iv, 1 min): 0.32 ± 0.02
- % Injected Dose per Gram Tissue, Brain ([2]; in vivo, iv, 1 min): 0.02 ± 0.01
- % Injected Dose per Gram Tissue, Heart ([2]; in vivo, iv, 1 min): 0.96 ± 0.07
- % Injected Dose per Gram Tissue, Kidney (one) ([2]; in vivo, iv, 1 min): 11.08 ± 0.88
- % Injected Dose per Gram Tissue, Liver ([2]; in vivo, iv, 1 min): 3.05 ± 0.27
- % Injected Dose per Gram Tissue, Lungs ([2]; in vivo, iv, 1 min): 0.91 ± 0.09
- % Injected Dose per Gram Tissue, Spleen ([2]; in vivo, iv, 1 min): 0.31 ± 0.05
- Heart/Blood ([2]; in vivo, iv, 1 min): 2.99 ± 0.15
- % Injected Dose per Gram Tissue, Blood ([2]; in vivo, iv, 2 h): 0.03 ± 0.01
- % Injected Dose per Gram Tissue, Brain ([2]; in vivo, iv, 2 h): 0.01 ± 0.003
- % Injected Dose per Gram Tissue, Heart ([2]; in vivo, iv, 2 h): 0.92 ± 0.07
- % Injected Dose per Gram Tissue, Kidney (one) ([2]; in vivo, iv, 2 h): 2.19 ± 0.08
- % Injected Dose per Gram Tissue, Liver ([2]; in vivo, iv, 2 h): 0.63 ± 0.20
- % Injected Dose per Gram Tissue, Lungs ([2]; in vivo, iv, 2 h): 0.32 ± 0.02
- % Injected Dose per Gram Tissue, Spleen ([2]; in vivo, iv, 2 h): 0.17 ± 0.03
- Heart/Blood ([2]; in vivo, iv, 2 h): 30.58 ± 2.22
- % Injected Dose per Gram Tissue, Blood ([2]; in vivo, iv, […]): 0.06 ± 0.01
- % Injected Dose per Gram Tissue, Brain ([2]; in vivo, iv, […]): 0.01 ± 0.001
- % Injected Dose per Gram Tissue, Heart ([2]; in vivo, iv, […]): 1.01 ± 0.08
- % Injected Dose per Gram Tissue, Kidney (one) ([2]; in vivo, iv, […]): 4.47 ± 0.62
- % Injected Dose per Gram Tissue, Liver ([2]; in vivo, iv, […]): 1.71 ± 0.40
- % Injected Dose per Gram Tissue, Lungs ([2]; in vivo, iv, […]): 0.38 ± 0.05
- % Injected Dose per Gram Tissue, Spleen ([2]; in vivo, iv, […]): 0.22 ± 0.02
- Heart/Blood ([2]; in vivo, iv, […]): 17.62 ± 0.31
